Where “and” joins values, the source holds several entries; their conditions need not be identical. Equal values may be shown once.
What was measured:
Brd2(1) Leu110-Ile = Brd2(1) Leu110-Ile (Homo sapiens, UniProt P25440, L110I); assay: ITC reverse titration of protein into compound; assay type: binding; parameters: Plasmids of the eight single BET bromodomain constructs Brd2(1), Brd2(2), Brd3(1), Brd3(2), Brd4(1), Brd4(2), Brdt(1) and Brdt(2); His6 (N); made in house; host or cells: E. coli BL21(DE3)
Brd2(1) Leu110-Ile, sequence (P25440 74-180 L110I limits assumed): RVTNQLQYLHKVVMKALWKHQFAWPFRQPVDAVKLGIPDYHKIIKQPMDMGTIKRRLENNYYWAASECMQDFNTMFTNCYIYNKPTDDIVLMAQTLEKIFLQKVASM
Description: (§1) ITC experiments were carried out on a ITC200 instrument from MicroCal™ Experiments were conducted at 3 different temperatures 15° C., 25° C. and 30° C., while stirring at 1000 rpm. Buffers of proteins, peptide and compounds were matched to 20 mM HEPES pH 7.5 at 25° C. and 100 mM NaCl. Frozen protein was buffer exchanged as described for the DSF experiments. Each titration comprised 1 initial injection of 0.4 μl lasting 0.8 s, followed by 19 injections of 2 μl lasting 4 s each at 2 min intervals. The initial injection was discarded during data analysis. Standard and reverse titrations were conducted depending on the binding partners.
(§2) Reverse titrations were conducted to test the binding of the known ligands and the novel chemical probes to the wild types and the mutants. Experiments were carried out either at 25° C. or 30° C. For strong binders, a concentration of 150-200 μM of the protein was injected into a solution of 15-20 μM compound. […] In cases where the compound was solubilized in dimethyl sulfoxide, DMSO concentration was adjusted to 1% both in the syringe and in the cell.
(§3) All the data was fitted to a single binding site model using the Microcal LLC ITC200 Origin software provided by the manufacturer to yield enthalpies of binding (ΔH) and binding constants (Kas). Further thermodynamic parameters were calculated from these values (changes in entropy ΔS, changes in free energy AG and dissociation constants (Kds)).

Brd2(2) Leu383-Ile = Brd2(2) Leu383-Ile (Homo sapiens, UniProt P25440, L383I); assay: ITC reverse titration of protein into compound; assay type: binding; parameters: Plasmids of the eight single BET bromodomain constructs Brd2(1), Brd2(2), Brd3(1), Brd3(2), Brd4(1), Brd4(2), Brdt(1) and Brdt(2); His6 (N); made in house; host or cells: E. coli BL21(DE3)
Brd2(2) Leu383-Ile, sequence (P25440 344-453 L383I limits assumed): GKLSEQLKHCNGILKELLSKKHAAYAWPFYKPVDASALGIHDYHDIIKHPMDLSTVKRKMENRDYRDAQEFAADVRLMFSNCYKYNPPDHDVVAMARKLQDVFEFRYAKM
Description: as §1, §2, §3

Brd2(1)*(Leu110-Ala) = Brd2(1)*(Leu110-Ala) (Homo sapiens, UniProt P25440, L110A); assay: DSF thermal shift; assay type: binding; parameters: Plasmids of the eight single BET bromodomain constructs Brd2(1), Brd2(2), Brd3(1), Brd3(2); His6 (N); made in house; host or cells: E. coli BL21(DE3); conditions: mutant
Brd2(1)*(Leu110-Ala), sequence (P25440 74-180 L110A limits assumed): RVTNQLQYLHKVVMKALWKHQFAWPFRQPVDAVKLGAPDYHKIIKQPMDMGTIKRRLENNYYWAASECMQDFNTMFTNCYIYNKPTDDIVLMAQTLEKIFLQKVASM
Description: (§4) DSF assays were performed on a LightCycler®480 from Roche or a Mx3005P Real Time PCR machine from Stratagene. […] SYPRO®Orange from Invitrogen Molecular Probes® was used as a reporter dye to monitor the denaturing process of the proteins. Samples were assayed on a 96-well plate with final protein concentrations of 2 μM for the LightCycler®480 and 6 μM for Mx3005P. Compounds were added at a final concentration of 10 μM for the LightCycler®480 and 30 μM for Mx3005P, while the tetra acetylated histone peptide was added to a final concentration of 100 μM and 300 μM respectively. […] The temperature was raised with a step of 0.6° C. per minute from 37° C. to 95° C. with the LightCycler®480 collecting 39 measurements per ° C., and 1° C. per minute from 25° C. to 95° C. with Mx3005P, collecting fluorescence readings at the end of each interval. Each sample was run in triplicates.
(§5) Collected data was analysed by IGOR Pro 6, a scientific software tool from Wave Metrics, Inc. Analysis was done following the recommendations of Niesen et al.. Fluorescence intensity was plotted as a function of temperature, generating a sigmoidal curve described by a two-state transition from folded to unfolded protein. Curves were fitted by the following sigmoidal equation: […]
(§6) A1 and A2 are the values of minimum and maximum intensities, respectively, x0 is the inflection point and dx is the rate. Fitted curves were differentiated in IGOR Pro 6 and the maximum of the first derivative was identified using the same program. These values correspond to the inflection points of the transition curves and thus to the melting temperatures of the proteins (Tm).

Brd2(2)*(Leu383-Ala) = Brd2(2)*(Leu383-Ala) (Homo sapiens, UniProt P25440, L383A); assay: DSF thermal shift; assay type: binding; parameters: Plasmids of the eight single BET bromodomain constructs Brd2(1), Brd2(2), Brd3(1), Brd3(2); His6 (N); made in house; host or cells: E. coli BL21(DE3); conditions: mutant
Brd2(2)*(Leu383-Ala), sequence (P25440 344-453 L383A limits assumed): as the sequence (P25440 344-453 L383I limits assumed) above, with I40A counted along it
Description: as §4, §5, §6

Brd2(1) = biological target: T1, Brd2(1) (Homo sapiens, UniProt P25440); assay: ITC reverse titration of protein into compound; assay type: binding; conditions: for ΔH Brd2(1): ITC 25° C.
T1 construct: Plasmids of the eight single BET bromodomain constructs Brd2(1), Brd2(2), Brd3(1), Brd3(2); His6 (N); made in house; host or cells: E. coli BL21(DE3)
T1 sequence (P25440 74-180 limits assumed): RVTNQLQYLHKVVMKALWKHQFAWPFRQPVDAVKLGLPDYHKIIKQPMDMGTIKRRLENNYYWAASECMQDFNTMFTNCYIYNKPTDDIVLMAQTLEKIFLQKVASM
Description: as §1
as §2, with “C.” for “C. For strong binders, a concentration of 150-200 μM of the protein was injected into a solution of 15-20 μM compound.”
as §3

Brd2(2) = biological target: T2, Brd2(2) (Homo sapiens, UniProt P25440); assay: ITC reverse titration of protein into compound; assay type: binding; conditions: ITC 25° C.; for Kd: Kd Brd2(2)
T2 construct: Plasmids of the eight single BET bromodomain constructs Brd2(1), Brd2(2), Brd3(1), Brd3(2); His6 (N); made in house; host or cells: E. coli BL21(DE3)
T2 sequence (P25440 344-453 limits assumed): as the sequence (P25440 344-453 L383I limits assumed) above, with I40L counted along it
Description: as §1
as §2, with “C.” for “C. For strong binders, a concentration of 150-200 μM of the protein was injected into a solution of 15-20 μM compound.”
as §3

WT GFP-Brd4 = biological target: T3, WT GFP-Brd4 (Homo sapiens, UniProt O60885); assay: FRAP in transfected U2OS cells; assay type: cell-based; conditions: WT GFP-Brd4, 1 μM compound
T3 construct: full length human GFP-BRD4 transfected into human osteosarcoma cells (U2OS); expressed in transfected cells; host or cells: U2OS human osteosarcoma cells
Description: The data shown represent the mean±SEM (n=35-50). Statistical significance was determined by one-tailed t tests: *<0.05; **P<0.01; ***P<0.001; n.s. not significant.
Fluorescence recovery after photobleaching (FRAP) experiments were performed in human osteosarcoma U2OS cells transfected with mammalian expression constructs encoding wild type and mutant GFP chimeras of Brd4. Cells were cultured in DMEM (Gibco) supplemented with fetal bovine serum, Penicillin/Streptamycin and L-Glutamine. Cells were seeded into glass bottom dishes (Willco) to about 40% confluency and transfected with the constructs using Effectene (QIAGEN) at least 18 h before the experiment. Treatment of cells with 1 μM compounds (in DMSO) was performed 12-15 h before the experiment. Cells without compound treatment were treated with DMSO as a vehicle control at least 15 h before the experiment. DMEM was exchanged for CO2-independent phenol red-free media (Gibco) for the experiment. […] A spot was bleached with a single pulse at 100% laser power for 0.2 s and recovery images were acquired using a coolsnap HQ camera with a 2×2 bin at 0.05 s exposure. […] FRAP data was analysed using the SoftWorX software. It was fitted to a 2-dimensional recovery curve using the method of Axelrod as implemented within the software and half-times of recovery were calculated.

| SMILES | Kd (Brd2(1) Leu110-Ile) | Kd (Brd2(2) Leu383-Ile) | Thermal stabilisation brd2(1)L110A (Brd2(1)*(Leu110-Ala)) | ΔTm Brd2(1)*(Leu110-Ala) (Brd2(1)*(Leu110-Ala)) | Thermal stabilisation brd2(1)L110A (Brd2(1)*(Leu110-Ala); listed as compound 7) | Thermal stabilisation brd2(2)L383A (Brd2(2)*(Leu383-Ala)) | ΔTm Brd2(2)*(Leu383-Ala) (Brd2(2)*(Leu383-Ala)) | Thermal stabilisation brd2(2)L383A (Brd2(2)*(Leu383-Ala); listed as compound 7) | Kd (Brd2(1)) | ΔH Brd2(1) (Brd2(1)) | ΔH Brd2(2) (Brd2(2)) | Kd (Brd2(2)) | Fluorescence recovery after photobleaching (recovery time) (WT GFP-Brd4) |
| --- | --- | --- | --- | --- | --- | --- | --- | --- | --- | --- | --- | --- | --- |
| COC(=O)[C@H](C)[C@@H]1N=C(c2ccc(Cl)cc2)c2cc(OC)ccc2-n2c(C)nnc21 (racemic) [Compound 7, (+−)-methyl (R)-2-((S)-6-(4-chlorophenyl)-8-methoxy-1-methyl-4H-benzo[f][1,2,4]triazolo[4,3-a][1,4]diazepin-4-yl)propanoate] | 260 nM | 27 nM | 7.9 ± 0.2 °C | 7.9 ± 0.2 K | 7.9 °C | 9.3 ± 0.2 °C | 9.3 ± 0.2 K | 9.3 °C | 1470 nM | -8.653 ± 0.1357 kcal/mol | -5.36 ± 0.117 kcal/mol | 300 nM and 298 nM |  |
| CC[C@@H](C(=O)OC)[C@@H]1N=C(c2ccc(Cl)cc2)c2cc(OC)ccc2-n2c(C)nnc21 (racemic) [Compound 11, (+−)-methyl (R)-2-((S)-6-(4-chlorophenyl)-8-methoxy-1-methyl-4H-benzo[f][1,2,4]triazolo[4,3-a][1,4]diazepin-4-yl)butanoate] |  |  |  | 7.6 ± 0.2 K |  |  | 8.1 ± 0.2 K |  | 1780 ± 2000 nM | -2.957 ± 0.2144 kcal/mol | -3.601 ± 0.0852 kcal/mol | 2200 ± 400 nM | no reduction of recovery times relative to vehicle-treated cells |

Source: US20170122958A1, “Enzymes Functional Probes” (University of Dundee, priority 2013, published 2017)
